Data: patent US9856259B2, “Heterocyclic compounds and uses thereof” (Plexxikon Inc., priority 2014, dated 2018)

Legend:
BRD4-BD12 = molecular target: T1, BRD4-BD12 (Homo sapiens, UniProt O60885); test: Alphascreen binding assay, BRD4(1 2) H4; conditions: BRD4 dual bromodomains with acetylated Histone 4 peptide, read-out: Biochemical activity (IC50 μM) BRD4(1 2) H4
T1 construct: dual bromodomains (BRD4-BD12 (1-477), BRD4-BD12 (1-472)); six-His tag (N); made in house; host or cells: E. coli BL21-CodonPlus (DE3)
In short: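 N-His-tagged human BRD4 tandem bromodomains (1-477 or 1-472, E. coli-expressed) and biotinylated tetra-acetylated histone H4 1-21 peptide, preincubated 1 h at room temperature with compound in HEPES pH 7.5/NaCl/BSA/Triton/DTT. AlphaScreen nickel-chelate/streptavidin beads added (7.5 μg/mL), read after 30 min. pIC50 from four-parameter fit of control-normalized data.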

MV-4-11 = test: Oncology cell growth assay, MV-4-11 3 d growth; type: cell-based; conditions: Homo sapiens, MV4-11; MV-4-11 cells, 72 hours, CellTiter Glo; read-out: Cell activity (IC50 μM) MV-4-11 3 d-Growtb
In short: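 MV-4-11 AML cells (MLL-AF4) seeded 3000/well, then exposed to 8-point 1:3 compound dilutions up to 10 μM final, 0.2% DMSO, for 72 h. Growth read by CellTiter Glo luminescence, normalised to DMSO controls; pIC50 from four-parameter fit.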

[1] = test system: cancer cell lines / MV-4-11 Myc reporter cell line; test: Bromodomain cell assays of Example 8 (at least one of them); type: cell-based; conditions: Homo sapiens, MV4-11; at least one of the bromodomain cell assays described in Example 8
In short: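 Antiproliferation: 3000 cells/well, 8-point 1:3 titration from 10 µM final, 0.2% DMSO, 72 h, CellTiter Glo luminescence. Myc reporter: MV-4-11 with E-box firefly luciferase, 25,000 cells, same titration, 24 h; One-Glo luminescence with CellTiter-Fluo viability; 10 µM JQ1 as low control. pIC50 from four-parameter fit.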

| Structure (SMILES) | IC50 (BRD4-BD12) | IC50 (MV-4-11) | IC50 [1] |
| --- | --- | --- | --- |
| Cc1noc(C)c1-c1cnc2c(-c3ccc(CC(=O)O)cc3)cn([C@@H](C)c3ccccn3)c2n1 [Compound P-2052, 2-[4-[3-(3,5-dimethylisoxazol-4-yl)-5-[(1S)-1-(2-pyridyl)ethyl]pyrrolo[2,3-b]pyrazin-7-yl]phenyl]acetic acid] | ≤ 1 µM | ≤ 1 µM | < 10 µM |
| Cc1noc(C)c1-c1cnc2c(-c3cnn(C)c3)nn(CC3CCC(F)(F)CC3)c2c1 [Compound P-2081, 4-[1-[(4,4-difluorocyclohexyl)methyl]-3-(1-methylpyrazol-4-yl)pyrazolo[4,3-b]pyridin-6-yl]-3,5-dimethyl-isoxazole] | ≤ 1 µM | ≤ 1 µM | < 10 µM |
| COC(=O)Cc1ccc(-c2cn(C(c3ccccc3)c3ccccn3)c3nc(-c4c(C)noc4C)cnc23)cc1 (stereo not drawn) [Compound P-2047, methyl 2-[4-[3-(3,5-dimethylisoxazol-4-yl)-5-[phenyl(2-pyridyl)methyl]pyrrolo[2,3-b]pyrazin-7-yl]phenyl]acetate] | ≤ 1 µM | ≤ 1 µM | < 10 µM |
| Cc1noc(C)c1-c1ccc2c(-c3cnn(C)c3)nn(C(c3ccccc3)c3ccccn3)c2c1 (stereo not drawn) [Compound P-2004, 3,5-dimethyl-4-[3-(1-methylpyrazol-4-yl)-1-[phenyl(2-pyridyl)methyl]indazol-6-yl]isoxazole] | ≤ 1 µM | ≤ 1 µM | < 10 µM |
| Cc1noc(C)c1-c1cnc2c(-c3cnn(CC(F)(F)F)c3)nn(CC3CC(F)(F)C3)c2c1 [Compound P-2087, 4-[1-[(3,3-difluorocyclobutyl)methyl]-3-[1-(2,2,2-trifluoroethyl)pyrazol-4-yl]pyrazolo[4,3-b]pyridin-6-yl]-3,5-dimethyl-isoxazole] | ≤ 1 µM | ≤ 1 µM | < 10 µM |
| Cc1noc(C)c1-c1cnc2c(-c3cnn(C(F)F)c3)nn(CC3(F)CCCCC3)c2c1 [Compound P-2088, 4-[3-[1-(difluoromethyl)pyrazol-4-yl]-1-[(1-fluorocyclohexyl)methyl]pyrazolo[4,3-b]pyridin-6-yl]-3,5-dimethyl-isoxazole] | ≤ 1 µM | ≤ 1 µM | < 10 µM |
| Cc1noc(C)c1-c1cnc2ncn(C(c3ccccc3)c3ccccn3)c2c1 (stereo not drawn) [Compound P-2103, 3,5-dimethyl-4-[1-[phenyl(2-pyridyl)methyl]imidazo[4,5-b]pyridin-6-yl]isoxazole] | ≤ 1 µM | ≤ 1 µM | < 10 µM |
| [2H]C([2H])(C1CCC(F)(F)CC1)n1cc(I)c2ncc(-c3c(C)noc3C)nc21 [Compound P-2039, 4-[5-[dideuterio-(4,4-difluorocyclohexyl)methyl]-7-iodo-pyrrolo[2,3-b]pyrazin-3-yl]-3,5-dimethyl-isoxazole] | ≤ 1 µM | ≤ 1 µM | < 10 µM |
| Cc1noc(C)c1-c1cnc2c(-c3ccc(C(=O)O)cc3)cn(C(c3ccccc3)c3ccccn3)c2n1 (stereo not drawn) [Compound P-2046, 4-[3-(3,5-dimethylisoxazol-4-yl)-5-[phenyl(2-pyridyl)methyl]pyrrolo[2,3-b]pyrazin-7-yl]benzoic acid] | ≤ 1 µM | ≤ 1 µM | < 10 µM |
| Cc1noc(C)c1-c1cnc2c(-c3cnn(CC(F)(F)F)c3)nn(CC3(F)CCCCC3)c2c1 [Compound P-2089, 4-[1-[(1-fluorocyclohexyl)methyl]-3-[1-(2,2,2-trifluoroethyl)pyrazol-4-yl]pyrazolo[4,3-b]pyridin-6-yl]-3,5-dimethyl-isoxazole] | ≤ 1 µM | ≤ 1 µM | < 10 µM |
| Cc1noc(C)c1-c1ccc2c(-c3cnn(C)c3)nn(CC3CCC(F)(F)CC3)c2c1 [Compound P-2001, 4-[1-[(4,4-difluorocyclohexyl)methyl]-3-(1-methylpyrazol-4-yl)indazol-6-yl]-3,5-dimethyl-isoxazole] | ≤ 1 µM | ≤ 1 µM | < 10 µM |
| Cc1noc(C)c1-c1cnc2c(-c3cnn(C)c3)nn(CC3CC(F)(F)C3)c2c1 [Compound P-2086, 4-[1-[(3,3-difluorocyclobutyl)methyl]-3-(1-methylpyrazol-4-yl)pyrazolo[4,3-b]pyridin-6-yl]-3,5-dimethyl-isoxazole] | ≤ 1 µM | ≤ 1 µM | < 10 µM |
| [2H]C([2H])(C1CCC(F)(F)CC1)n1ccc2ncc(-c3nn(C(F)F)nc3C)nc21 [Compound P-2042] | 1 to 10 µM | 10 to 200 µM | < 10 µM |
| Cc1noc(C)c1-c1ccc2c(-c3cnn(CC(F)(F)F)c3)nn(C(c3ccccc3)c3ccccn3)c2c1 (stereo not drawn) [Compound P-2005, 3,5-dimethyl-4-[1-[phenyl(2-pyridyl)methyl]-3-[1-(2,2,2-trifluoroethyl)pyrazol-4-yl]indazol-6-yl]isoxazole] | ≤ 1 µM | ≤ 1 µM | < 10 µM |
| [2H]C([2H])(C1CCC(F)(F)CC1)n1ccc2ncc(-c3[nH]nnc3C)nc21 [Compound P-2041, 5-[dideuterio-(4,4-difluorocyclohexyl)methyl]-3-(4-methyl-1H-triazol-5-yl)pyrrolo[2,3-b]pyrazine] | 1 to 10 µM | 1 to 10 µM | < 10 µM |
| Cc1noc(C)c1-c1cnc2c(-c3ccc(C4(C(=O)O)CC4)cc3)cn([C@@H](C)c3ccccn3)c2n1 [Compound P-2054, 1-[4-[3-(3,5-dimethylisoxazol-4-yl)-5-[(1S)-1-(2-pyridyl)ethyl]pyrrolo[2,3-b]pyrazin-7-yl]phenyl]cyclopropanecarboxylic acid] | ≤ 1 µM | ≤ 1 µM | < 10 µM |
| Cc1noc(C)c1-c1cnc2c(-c3ccc(CC(=O)O)cc3)cn(C(c3ccccc3)c3ccccn3)c2n1 (stereo not drawn) [Compound P-2048, 2-[4-[3-(3,5-dimethylisoxazol-4-yl)-5-[phenyl(2-pyridyl)methyl]pyrrolo[2,3-b]pyrazin-7-yl]phenyl]acetic acid] | ≤ 1 µM | ≤ 1 µM | < 10 µM |
| [2H]C([2H])(C1CCC(F)(F)CC1)n1cc(-c2ccc(C(=O)OC)cc2)c2ncc(-c3c(C)noc3C)nc21 [Compound P-2043, methyl 4-[5-[dideuterio-(4,4-difluorocyclohexyl)methyl]-3-(3,5-dimethylisoxazol-4-yl)pyrrolo[2,3-b]pyrazin-7-yl]benzoate] | ≤ 1 µM | 1 to 10 µM | < 10 µM |
| Cc1noc(C)c1-c1ccc2c(-c3ccc(CC(=O)O)cc3)nn([C@@H](C)c3ccccn3)c2c1 [Compound P-2014, 2-[4-[6-(3,5-dimethylisoxazol-4-yl)-1-[(1S)-1-(2-pyridyl)ethyl]indazol-3-yl]phenyl]acetic acid] | ≤ 1 µM | ≤ 1 µM | < 10 µM |
| Cc1noc(C)c1-c1cnc2cnn(CC3CCC(F)(F)CC3)c2c1 [Compound P-2079, 4-[1-[(4,4-difluorocyclohexyl)methyl]pyrazolo[4,3-b]pyridin-6-yl]-3,5-dimethyl-isoxazole] | ≤ 1 µM | ≤ 1 µM | < 10 µM |
| [2H]C([2H])(C1CCC(F)(F)CC1)n1cc(-c2cnn(C)c2)c2ncc(-c3c(C)noc3C)nc21 [Compound P-2040, 4-[5-[dideuterio-(4,4-difluorocyclohexyl)methyl]-7-(1-methylpyrazol-4-yl)pyrrolo[2,3-b]pyrazin-3-yl]-3,5-dimethyl-isoxazole] | ≤ 1 µM | ≤ 1 µM | < 10 µM |
